# Source: ChEMBL document CHEMBL6182866, “Design, synthesis, molecular docking and ADME of novel phenylalanine derivatives as mushroom tyrosinase inhibitors” (Bioorg Med Chem Lett, 2025)
# Activity calls are given as the source filed them. No cut-off for these calls is given here.
# Key:
# [1] = biological target: Mushroom tyrosinase (Agaricus bisporus, UniProt O42713+Q00024+C7FF04+C7FF05); test: Inhibition of mushroom tyrosinase using L-DOPA as substrate assessed as reduction in diphenolase activity; format: protein assay
# [2] = biological target: T1, Mushroom tyrosinase (Agaricus bisporus) (UniProt O42713+Q00024+C7FF04+C7FF05); test: Reversible inhibition of mushroom tyrosinase using L-DOPA as substrate up to 10 uM; format: protein assay
# [3] = biological target: T1, Mushroom tyrosinase (Agaricus bisporus); test: Competitive inhibition of mushroom tyrosinase using L-DOPA as substrate assessed as increase in Km with constant Vmax up to 10 uM by Lineweaver-Burk plot analysis; format: protein assay
# [4] = biological target: T2, Tyrosinase (Homo sapiens) (UniProt P14679); test: Inhibition of human TYR using L-DOPA as substrate assessed as reduction in diphenolase activity by absorbance based assay
# T2 sequence (whole entry): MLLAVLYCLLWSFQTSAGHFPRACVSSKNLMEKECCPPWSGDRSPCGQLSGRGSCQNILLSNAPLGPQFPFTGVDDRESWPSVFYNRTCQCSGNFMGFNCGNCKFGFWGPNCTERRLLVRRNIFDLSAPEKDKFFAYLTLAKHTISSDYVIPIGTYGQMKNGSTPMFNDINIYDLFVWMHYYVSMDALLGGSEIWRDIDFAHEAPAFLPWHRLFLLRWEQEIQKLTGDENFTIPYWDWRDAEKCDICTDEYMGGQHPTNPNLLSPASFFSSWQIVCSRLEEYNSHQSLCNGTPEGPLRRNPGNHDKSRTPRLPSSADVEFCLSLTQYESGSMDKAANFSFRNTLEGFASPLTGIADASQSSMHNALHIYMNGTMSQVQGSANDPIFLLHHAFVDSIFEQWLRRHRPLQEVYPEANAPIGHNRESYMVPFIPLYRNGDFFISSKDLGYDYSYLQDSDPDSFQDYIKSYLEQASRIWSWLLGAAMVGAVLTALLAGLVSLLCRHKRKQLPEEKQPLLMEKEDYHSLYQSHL
smiles,measurement,setting,value
O=C(OCc1cc(=O)c(O)co1)C(Cc1ccccc1)NCc1ccc([N+](=O)[O-])cc1 (configuration not stated),IC50,[1],13.43 µM
O=C(OCc1cc(=O)c(O)co1)C(Cc1ccccc1)NCc1ccc(Br)cc1 (configuration not stated),IC50,[1],15.26 µM
O=C(OCc1ccc(F)cc1)C(Cc1ccccc1)NCc1ccccc1Cl (configuration not stated),IC50,[1],18.2 µM
O=C(OCc1ccc([N+](=O)[O-])cc1)C(Cc1ccccc1)NCc1ccc([N+](=O)[O-])cc1 (configuration not stated),IC50,[1],10.58 µM
O=C(O)C(Cc1ccccc1)NCc1ccccc1Cl (configuration not stated),IC50,[1],> 100 µM
O=C(OCc1ccc(F)cc1)C(Cc1ccccc1)NCc1ccc([N+](=O)[O-])cc1 (configuration not stated),IC50,[1],11.77 µM
O=C(OCc1ccc([N+](=O)[O-])cc1)C(Cc1ccccc1)NCc1ccc(Br)cc1 (configuration not stated),IC50,[1],11.95 µM
O=C(OCc1cc(=O)c(O)co1)C(Cc1ccccc1)NCc1ccc(Cl)cc1Cl (configuration not stated),IC50,[1],10.35 µM
same,inhibition,[2],Active
same,inhibition,[3],Active
O=C(OCc1ccc(F)cc1)C(Cc1ccccc1)NCc1ccc(Cl)cc1Cl (configuration not stated),IC50,[1],8.33 µM
O=C(OCc1ccc(F)cc1)C(Cc1ccccc1)NCc1ccc(Br)cc1 (configuration not stated),IC50,[1],16.07 µM
O=C(OCc1ccc(F)cc1)C(Cc1ccccc1)NCc1ccc(Cl)c([N+](=O)[O-])c1 (configuration not stated),IC50,[1],6.11 µM
O=c1cc(CCl)occ1O,IC50,[1],33.05 µM
O=C(O)C(Cc1ccccc1)NCc1ccc(Cl)c([N+](=O)[O-])c1 (configuration not stated),IC50,[1],> 100 µM
O=C(OCc1ccc([N+](=O)[O-])cc1)C(Cc1ccccc1)NCc1ccc(Cl)c([N+](=O)[O-])c1 (configuration not stated),IC50,[1],4.86 µM
same,inhibition,[4],Dose-dependent-effect
same,inhibition,[2],Active
same,inhibition,[3],Active
O=C(OCc1cc(=O)c(O)co1)C(Cc1ccccc1)NCc1ccccc1Cl (configuration not stated),IC50,[1],20.64 µM
O=C(O)C(Cc1ccccc1)NCc1ccc(Br)cc1 (configuration not stated),IC50,[1],31.05 µM
O=C(O)C(Cc1ccccc1)NCc1ccc([N+](=O)[O-])cc1 (configuration not stated),IC50,[1],42.4 µM
O=C(O)C(Cc1ccccc1)NCc1ccc(Cl)cc1Cl (configuration not stated),IC50,[1],> 100 µM
O=C(OCc1ccc([N+](=O)[O-])cc1)C(Cc1ccccc1)NCc1ccccc1Cl (configuration not stated),IC50,[1],16.99 µM
CC(C)C(=O)Nc1nc(-c2ccc(O)cc2O)cs1,IC50,[1],48.12 µM
O=C(OCc1cc(=O)c(O)co1)C(Cc1ccccc1)NCc1ccc(Cl)c([N+](=O)[O-])c1 (configuration not stated),IC50,[1],11.65 µM
O=C(OCc1ccc([N+](=O)[O-])cc1)C(Cc1ccccc1)NCc1ccc(Cl)cc1Cl (configuration not stated),IC50,[1],6.78 µM
